Experimental data reported in patent US8901307B2, “Chemical compounds 251” (AstraZeneca AB, priority 2008, dated 2014).
Where a name gives a salt, the structure may show the parent alone.

What was measured:
[1] = target: T1, human His-PIM2 [23-299] (Homo sapiens, UniProt Q9P1W9); assay: PIM2 in-vitro mobility shift assay (Caliper LC3000, FL-Ahx-Bad phosphorylation); assay type: biochemical; details: 1.5 h; percent inhibition at 0.3 uM compound; read-out: PIM2 % I at 0.3 uM
T1 construct: purified human His-PIM2 [23-299] enzyme; His (N); host or cells: E. coli
From the text: PIM2 In-Vitro Mobility Shift Assay
(§1) One may determine the activity of purified human His-PIM2 [23-299] enzyme in-vitro using a mobility shift assay on a Caliper LC3000 reader (Caliper, Mass.), which measures fluorescence of a phosphorylated and unphosphorylated FL-Ahx-Bad (FITC-(AHX)RSRHSSYPAGT-COOH, Primm 200606-00289, Primm Biotech, Mass.) and calculates a ratiometric value to determine percent turnover. One may express PIM2 (produced at AstraZeneca, R&D Boston) in E. coli cells with a typical yield of >90% purity.
One determines phosphorylation of the FL-Ahx-Bad in the presence and absence of the compound of interest. One preincubates 5 uL of Enzyme/Substrate/adenosine triphosphate (ATP) mix consisting of 2.4 nM […], 3.6 uM FL-Ahx-Bad, and 12 uM ATP in 1.2× buffer with 2 ul of compound for 20 minutes at 25° C. One initiates reactions with 5 uL of Metal mix consisting of 24 mM MgCl2 in 1.2× buffer and incubates at 25° C. for 90 minutes. One stops reactions by addition of 5 uL of Stop mix consisting of 100 mM HEPES, 121 mM ethylenediamine tetraacetic acid, 0.8% Coatin Reagent 3 (Caliper, Mass.), and 0.01% Tween. One detects phosphorylated and unphosphorylated substrate by a Caliper LC3000 reader (Caliper, Mass.) in the presence of separation buffer consisting of 100 mM HEPES, 16 mM ethylenediamine tetraacetic acid, 0.1% Coatin Reagent 3 (Caliper, Mass.), 0.015% Brij-35, 5% DMSO, and 5.6 mM MgCl2. One may use the following separation conditions for a Caliper LC3000: −1.0 PSI, −2000 V upstream voltage, −400 V downstream voltage, 0.2 second sample sip, 45 second post sip, 10% laser strength.

[2] = target: T2, human His-PIM1 [2-313] (Homo sapiens, UniProt P11309); assay: PIM1 in-vitro mobility shift assay (Caliper LC3000, FL-Ahx-Bad phosphorylation); assay type: biochemical; details: 1.5 h; percent inhibition at 0.3 uM compound; read-out: PIM1 % I at 0.3 uM
T2 construct: purified human His-PIM1 [2-313] enzyme; His (N); purchased University of Dundee, Scotland; host or cells: baculovirus system
From the text: PIM1 In-Vitro Mobility Shift Assay
as §1, with “His-PIM1 [2-313]” for “His-PIM2 [23-299]”, “PIM1 (University of Dundee, Scotland)” for “PIM2 (produced at AstraZeneca, R&D Boston)”, “baculovirus system” for “E. coli cells”, “>85%” for “>90%”
One determines phosphorylation of the FL-Ahx-Bad in the presence and absence of the compound of interest. One preincubates 5 µl of Enzyme/Substrate/adenosine triphosphate (ATP) mix consisting of 2.4 nM PIM1, 3.6 uM FL-Ahx-Bad, and 240 uM ATP in 1.2× buffer with 2 ul of compound for 20 minutes at 25° C. One initiates reactions with 5 ul of Metal mix consisting of 24 mM MgCl2 in 1.2× buffer and incubated at 25° C. for 90 minutes and stops the reactions by addition of 5 ul of Stop mix consisting of 100 mM HEPES, 121 mM ethylenediamine tetraacetic acid, 0.8% Coatin Reagent 3 (Caliper, Mass.), and 0.01% Tween. One detects phosphorylated and unphosphorylated substrate by a Caliper LC3000 reader (Caliper, Mass.) in the presence of separation buffer consisting of 100 mM HEPES, 16 mM ethylenediamine tetraacetic acid, 0.1% Coatin Reagent 3 (Caliper, Mass.), 0.015% Brij-35, 5% DMSO, and 5.6 mM MgCl2. One may use the following separation conditions for a Caliper LC3000: −1.0 PSI, −2000 V upstream voltage, −400 V downstream voltage, 0.2 second sample sip, 45 second post sip, 10% laser strength.
The table 1 below provides the percent inhibition of PIM1 at 0.3 micromolar for Examples provided herein. Several examples were tested more than once. Variations in the experimental outcomes, negative values, or values over 100% inhibition are presumably due to experimental error inherent in the assay.

T1 sequence (Q9P1W9 23-299): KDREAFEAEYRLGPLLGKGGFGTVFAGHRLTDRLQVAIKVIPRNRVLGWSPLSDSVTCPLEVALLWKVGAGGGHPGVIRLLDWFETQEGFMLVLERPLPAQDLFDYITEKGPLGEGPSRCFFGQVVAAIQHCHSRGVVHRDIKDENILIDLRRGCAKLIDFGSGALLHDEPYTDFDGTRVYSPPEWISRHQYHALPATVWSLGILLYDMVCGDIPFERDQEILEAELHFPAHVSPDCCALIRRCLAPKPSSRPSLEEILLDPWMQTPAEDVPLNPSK
T2 sequence (P11309 2-313): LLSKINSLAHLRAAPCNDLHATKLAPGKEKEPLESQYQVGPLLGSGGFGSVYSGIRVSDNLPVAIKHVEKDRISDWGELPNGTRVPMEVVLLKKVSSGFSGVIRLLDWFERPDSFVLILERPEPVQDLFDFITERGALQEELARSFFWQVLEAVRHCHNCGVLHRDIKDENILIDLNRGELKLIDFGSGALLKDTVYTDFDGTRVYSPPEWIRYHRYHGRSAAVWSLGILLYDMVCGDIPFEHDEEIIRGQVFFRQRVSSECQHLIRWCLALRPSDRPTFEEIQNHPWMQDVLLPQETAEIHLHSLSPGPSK

SMILES | inhibition at 0.3 µM [1] [%] | inhibition at 0.3 µM [2] [%]
COc1cc(/C=C2\SC(=O)NC2=O)c(N(C)CCN(C)C)cc1OC [Example 51, (5Z)-5-{2-[[2-(dimethylamino)ethyl](methyl)amino]-4,5-dimethoxybenzylidene}-1,3-thiazolidine-2,4-dione] | 80.6 | 85.5
O=C1NC(=O)/C(=C/c2cc(C(F)(F)F)cc(Cl)c2N2CCN(Cc3ccncc3)CC2)S1 [Example 17] | < 5 | 29.8
O=C1NC(=O)/C(=C/c2cc(C(F)(F)F)cc(Cl)c2N2CCCN(CCO)CC2)S1 [Example 26] | 49.6 | > 95
CN(C)C1CCN(c2ccc(C(N)=O)cc2/C=C2\SC(=O)NC2=O)C1 (centres unmarked) [Example 57, (Z)-4-(3-(dimethylamino)pyrrolidin-1-yl)-3-((2,4-dioxothiazolidin-5-ylidene)methyl)benzamide hydrochloride] | 42.6 | 53.3
N[C@@H]1CCCN(c2c(/C=C3\SC(=O)NC3=O)cccc2OC2CCC2)C1 [Example 122AD, (R,Z)-5-(2-(3-aminopiperidin-1-yl)-3-cyclobutoxybenzylidene)thiazolidine-2,4-dione hydrochloride] | > 95 | > 95
COc1ccc(N2CCC(N(C)C)C2)c(/C=C2\SC(=O)NC2=O)c1 (centres unmarked) [Example 43, (5Z)-5-{2-[3-(dimethylamino)pyrrolidin-1-yl]-5-methoxybenzylidene}-1,3-thiazolidine-2,4-dione] | 14.7 | 55.4
NC1CCN(c2c(Cl)cc(C(F)(F)F)cc2/C=C2\SC(=O)NC2=O)CC1 [Example 3] | 58 | > 95
O=C1NC(=O)/C(=C/c2ccccc2OCCO)S1 [Example 60, (Z)-5-(2-(2-hydroxyethoxy)benzylidene)thiazolidine-2,4-dione] | 11.3 | 35.4
CN(C)C1CCN(c2c(Cl)cc(C(F)(F)F)cc2/C=C2\SC(=O)NC2=O)CC1 [Example 24] | 44.3 | > 95
O=C1NC(=O)/C(=C/c2ccccc2N2CCNCC2)S1 [Example 115, (5Z)-5-(2-piperazin-1-ylbenzylidene)-1,3-thiazolidine-2,4-dione hydrochloride] | 76.1 | 93.3
CN(C)C1CCN(c2ccc(N)cc2/C=C2\SC(=O)NC2=O)C1 (centres unmarked) [Example 151, (Z)-5-(5-amino-2-(3-(dimethylamino)pyrrolidin-1-yl)benzylidene)thiazolidine-2,4-dione] | 13.5 | 31.5
Cn1ccc2ccc(/C=C3\SC(=O)NC3=O)cc21 [Example 75, (5Z)-5-[(1-methyl-1H-indol-6-yl)methylene]-1,3-thiazolidine-2,4-dione] | 69.5 | > 95

Continued, values first:

inhibition at 0.3 µM [1] [%] | inhibition at 0.3 µM [2] [%] | SMILES
> 95 | > 95 | N[C@@H]1CCCN(c2c(/C=C3\SC(=O)NC3=O)cccc2OC2CCCC2)C1 [Example 122AC, (R,Z)-5-(2-(3-aminopiperidin-1-yl)-3-(cyclopentyloxy)benzylidene)thiazolidine-2,4-dione hydrochloride]
60.7 | 90 | O=C1NC(=O)/C(=C/c2ccc3cc[nH]c3c2)S1 [Example 79, (5Z)-5-(1H-indol-6-ylmethylene)-1,3-thiazolidine-2,4-dione trifluoroacetate]
> 95 | > 95 | COc1cc(/C=C2\SC(=O)NC2=O)c(N2CCC(NCCN)C2)cc1OC (centres unmarked) [Example 111, (Z)-5-(2-(3-(2-aminoethylamino)pyrrolidin-1-yl)-4,5-dimethoxybenzylidene)thiazolidine-2,4-dione hydrochloride]
> 95 | > 95 | N[C@@H]1CCCN(c2c(/C=C3\SC(=O)NC3=O)cccc2-c2ccccc2)C1 [Example 122AI, (R,Z)-5-((2-(3-aminopiperidin-1-yl)biphenyl-3-yl)methylene)thiaozlidine-2,4-dione]
52 | 73.3 | O=C(Cc1ccncc1)N[C@H]1CCN(c2c(Cl)cccc2/C=C2\SC(=O)NC2=O)C1 [Example 140]
> 95 | > 95 | CCOc1cccc(/C=C2\SC(=O)NC2=O)c1N1CCC[C@@H](N)C1 [Example 122I, (R,Z)-5-(2-(3-aminopiperidin-1-yl)-3-ethoxybenzylidene)thiazolidine-2,4-dione hydrochloride]
> 95 | > 95 | NCCC(=O)N1CCN(c2ccccc2/C=C2\SC(=O)NC2=O)CC1 [Example 129A]
81.5 | > 95 | O=C1NC(=O)/C(=C/c2cc(C(F)(F)F)ccc2N2CCN(C(=O)C3CCCNC3)CC2)S1 (centres unmarked) [Example 92, (Z)-5-(2-(4-(piperidine-3-carbonyl)piperazin-1-yl)-5-(trifluoromethyl)benzylidene)thiazolidine-2,4-dione hydrochloride]
82.4 | > 95 | N[C@H]1CCN(c2cc(Cl)ccc2/C=C2\SC(=O)NC2=O)C1 [Example 85, (S,Z)-5-(2-(3-aminopyrrolidin-1-yl)-4-chlorobenzylidene)thiazolidine-2,4-dione hydrochloride]
65.8 | 64.2 | O=C1NC(=O)/C(=C/c2ccccc2N2CCN(C(=O)c3ccc(CN4CCNCC4)cc3)CC2)S1 [Example 109, (Z)-5-(2-(4-(4-(piperazin-1-ylmethyl)benzoyl)piperazin-1-yl)benzylidene)thiazolidine-2,4-dione hydrochloride]
40.4 | 93.3 | Cc1ccc(C=C2SC(=O)NC2=O)c(N2CC[C@H](N(C)C)C2)c1 [Example 84J, (S)-5-(2-(3-(dimethylamino)pyrrolidin-1-yl)-4-methylbenzylidene)thiazolidine-2,4-dione]
> 95 | > 95 | N[C@H]1CCN(c2c(Br)cccc2/C=C2\SC(=O)NC2=O)C1 [Example 122H, (S,Z)-5-(2-(3-aminopyrrolidin-1-yl)-3-bromobenzylidene)thiazolidine-2,4-dione hydrochloride]
85.2 | > 95 | O=C1NC(=O)/C(=C/c2cccc(Cl)c2N2CCC[C@@H](NCCCO)C2)S1 [Example 134]
88.4 | > 95 | N[C@H]1CCN(c2ccc(C(F)(F)F)cc2/C=C2\SC(=O)NC2=O)C1 [Example 88, (S,Z)-5-(2-(3-aminopyrrolidin-1-yl)-5-(trifluoromethyl)benzylidene)thiazolidine-2,4-dione hydrochloride]
> 95 | > 95 | COc1cccc(/C=C2\SC(=O)NC2=O)c1N1CC[C@H](N)C1 [Example 96, hydrochloride]
> 95 | > 95 | N[C@@H]1CCCN(c2c(/C=C3\SC(=O)NC3=O)cccc2OC2CCCCC2)C1 [Example 122L, hydrochloride]
